Assay results taken from patent US5942518A, “Water-soluble fluoroethylcamptothecin derivative and process for production thereof” (priority 1995, dated 1999).
Where a name gives a salt, the structure may show the parent alone.

Legend:
[1] = cited from earlier work
[2] = Toxicity in the colon 26 mouse study; assay type: in vivo, CDF-1 female mice
Procedure: (§1) To CDF-1 female mice of 9-week age, 1×10^6 cells of mouse colonic cancer colon 26 were implanted respectively under the skin of the axillary fossa. The medicine was administered to the tail vein three times from six days after the administration when the tumor was detected by finger touch at intervals of four days. On the 17th to 19th days from the implantation,the tumors were enucleated and weighed. The antineoplastic effect is represented by the tumor growth inhibition rate (TGI=(1-T/C)×100) derived from the ratio (T/C) of the average tumor weight (T) of the medicine-administered group to the average tumor weight (C) of the control group.

[3] = system: mouse colonic cancer colon 26; test: Antineoplastic effect against mouse colonic cancer colon 26 (Experimental Example 2); assay type: in vivo, CDF-1 female mice; details: for TGI (tumor growth inhibition rate): colon 26, tail vein, 3 times at 4-day intervals, day 17-19; for antineoplastic activity against the growth of advanced colonic cancer 26 tumor: mice, intravenous administration
Procedure: as §1

sarcoma 180 = test: Antineoplastic effect against mouse sarcoma 180 tumor (Experimental Example 1); assay type: in vivo, ICR female mice; details: sarcoma 180, tail vein, 3 times at 4-day intervals, day 14
Procedure: To ICR female mice of 5-week age, 5×10^6 cells of sarcoma 180 were implanted respectively under the skin of the axillary fossa. The medicine was administered to the tail vein three times from the day next to the administration at intervals of four days. After 14 days from the implantation, the tumors were enucleated and weighed. The antineoplastic effect is represented by the tumor growth inhibition rate (TGI=(1-T/C)×100) derived from the ratio (T/C) of the average tumor weight (T) of the medicine-administered group to the average tumor weight (C) of the control group.

acetylcholine esterase = test: Inhibition of acetylcholine esterase reaction (Experimental Example 3); assay type: biochemical
Sequence of acetylcholine esterase (P22303 32-614): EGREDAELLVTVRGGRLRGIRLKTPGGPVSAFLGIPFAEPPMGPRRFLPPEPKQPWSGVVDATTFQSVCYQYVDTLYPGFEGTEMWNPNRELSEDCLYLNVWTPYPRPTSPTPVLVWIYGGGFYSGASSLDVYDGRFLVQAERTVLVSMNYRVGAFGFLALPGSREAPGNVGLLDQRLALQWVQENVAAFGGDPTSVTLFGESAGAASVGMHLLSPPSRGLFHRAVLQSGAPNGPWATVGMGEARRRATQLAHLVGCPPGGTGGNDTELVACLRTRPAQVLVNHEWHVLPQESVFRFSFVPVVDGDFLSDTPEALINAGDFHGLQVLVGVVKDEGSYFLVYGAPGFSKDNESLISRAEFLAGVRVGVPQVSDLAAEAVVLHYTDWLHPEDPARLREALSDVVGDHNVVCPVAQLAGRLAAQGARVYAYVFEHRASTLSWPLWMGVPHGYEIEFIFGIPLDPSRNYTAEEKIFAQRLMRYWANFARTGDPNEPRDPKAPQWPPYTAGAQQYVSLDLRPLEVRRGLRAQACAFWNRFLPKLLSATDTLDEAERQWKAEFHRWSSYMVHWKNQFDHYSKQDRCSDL
Procedure: The absorbance was measured at 412 nm. The reaction rate and the acetylthiocholine iodide concentration was plotted according to Lineweaver-Burk method to obtain Vmax, and Km. Then, the inhibition constant (Ki) was calculated from the inhibitor concentration.

nucleic acid synthesis = details: background; cited from earlier work

| SMILES | TGI (tumor growth inhibition rate) ([3]; total dose 30 mg/kg) | antineoplastic activity against the growth of advanced colonic cancer 26 tumor [3] | TGI (tumor growth inhibition rate) (sarcoma 180; total dose 60 mg/kg) | TGI (tumor growth inhibition rate) (sarcoma 180; total dose 120 mg/kg) | TGI (tumor growth inhibition rate) ([3]; total dose 60 mg/kg) | TGI (tumor growth inhibition rate) ([3]; total dose 120 mg/kg) | other results |
| --- | --- | --- | --- | --- | --- | --- | --- |
| CCC1(OC(=O)CN)C(=O)OCc2c1cc1n(c2=O)Cc2cc3cc4c(cc3nc2-1)OCO4 (stereo not drawn) [10,11-methylenedioxy-20-O-glycylcamptothecin] |  |  |  |  |  |  | toxicity / side effects ([1]; known camptothecin derivatives, background): highly toxic |
| CC[C@@]1(OC(=O)CN)C(=O)OCc2c1cc1n(c2=O)Cc2cc3cc4c(cc3nc2-1)OCO4.Cl [Compound 1, 10,11-Methylenedioxy-20-O-glycylcamptothecin hydrochloride] | 44% | not inhibited |  |  |  |  | Toxicity ([2]; at a dose of as low as 20 mg/kg): toxic; Toxicity ([2]; colon 26 mice, tail vein, total dose 60 mg/kg): Toxic; TGI (tumor growth inhibition rate) ([3]; total dose 7.5 mg/kg): 21%; TGI (tumor growth inhibition rate) ([3]; total dose 15 mg/kg): 22% |
| CCOc1ccc2nc3c(c(CC)c2c1)Cn1c-3cc2c(c1=O)COC(=O)C2(CCF)OC(=O)CN (stereo not drawn) [Example 1, 4-[(aminomethylcarbonyl)oxy]-9-ethoxy-11-ethyl-4-(2-fluoroethyl)-1H-pyrano[3',4':6,7]indolidino[1,2-b]quinoline-3,14(4H,12H)-dione hydrochloride] | 28% |  | 83% | 91% | 59% | 81% | Ki (acetylcholine esterase): 20 to 40 µM; TGI (tumor growth inhibition rate) ([3]; total dose 180 mg/kg): 82% |
| CCc1c2c(nc3ccc(OC(=O)N4CCC(N5CCCCC5)CC4)cc13)-c1cc3c(c(=O)n1C2)COC(=O)[C@]3(O)CC [Irinotecan hydrochloride, irinotecan hydrochloride] | 8% | not inhibited | 75% | 74% | 28% | 34% | Toxicity ([2]; colon 26 mice, tail vein, total dose 120 mg/kg): Toxic; TGI (tumor growth inhibition rate) (sarcoma 180; total dose 30 mg/kg): 44% |
| CC[C@@]1(O)C(=O)OCc2c1cc1n(c2=O)Cc2cc3ccccc3nc2-1 [camptothecin, Camptothecin] |  |  |  |  |  |  | antineoplastic activity by inhibiting nucleic acid synthesis (nucleic acid synthesis): exhibit antineoplastic activity by inhibiting nucleic acid synthesis; clinical toxicity ([1]; clinical tests in the United States): discontinued because of its toxicity |
